Reference: patent US8738114B2, “Systems and methods for measuring and modeling in vivo manganese ion transport in a subject” (Celtrast LLC, priority 2009, dated 2014)

Molecular target: NCX (Mus musculus, UniProt P70414)
Test: In vivo MEMRI Mn^2+ efflux study with NCX inhibition by SEA0400 (dose dependent groups), pharmacokinetic Models 1-3
Conditions: for Mn^2+ efflux rate following inhibition of the NCX, % of the initial, pre-SEA0400 administration, rate: Model 2 prediction, maximum inhibition
[1] = Model 1, 10 mg/kg SEA0400 i.p. 1 h post-190 nmoles/g BW MnCl2
[2] = Model 1, 20 mg/kg SEA0400 i.p. 1 h post-190 nmoles/g BW MnCl2
[3] = Model 1, 34 mg/kg SEA0400 i.p. 1 h post-190 nmoles/g BW MnCl2
[4] = Model 1, 50 mg/kg SEA0400 i.p. 1 h post-190 nmoles/g BW MnCl2
[5] = Model 2, 10 mg/kg SEA0400 i.p. 1 h post-190 nmoles/g BW MnCl2
[6] = Model 2, 20 mg/kg SEA0400 i.p. 1 h post-190 nmoles/g BW MnCl2
[7] = Model 2, 34 mg/kg SEA0400 i.p. 1 h post-190 nmoles/g BW MnCl2
[8] = Model 2, 50 mg/kg SEA0400 i.p. 1 h post-190 nmoles/g BW MnCl2
[9] = Model 3, 10 mg/kg SEA0400 i.p. 1 h post-190 nmoles/g BW MnCl2
[10] = Model 3, 20 mg/kg SEA0400 i.p. 1 h post-190 nmoles/g BW MnCl2
[11] = Model 3, 34 mg/kg SEA0400 i.p. 1 h post-190 nmoles/g BW MnCl2
[12] = Model 3, 50 mg/kg SEA0400 i.p. 1 h post-190 nmoles/g BW MnCl2

Description: The mice were randomized into three groups for efflux studies: 1) MnCl2 dose dependent (65±0.2, 119±2, 190±3 (Control) and 283±6 nmoles/g body weight MnCl2, n=40 mice) 2) SEA0400 dose dependent (190±1 nmoles/g BW MnCl2 infusion, followed 1 hour later with an i.p. injection of 10±0.2, 20±0.2, 34±0.8 and 50±0.2 mg/kg SEA0400, n=30) 3) Myocardial infarction (MI, 190±0.1 nmoles/g BW MnCl2, n=9)
In order to model the drug pharmacokinetics of SEA0400, and therefore the Mn^2+ transport mechanisms, an equation for the drug plasma concentration (Cp) was used (Eq. [2]), commonly applied to pharmaceutical modeling:
In Eq. [2] F is the fraction of drug absorbed, Vp is the apparent volume of distribution of the drug and D is the drug dose administered. The rate parameters, kel and kabs represent the drug elimination and absorption rates respectively.
The form for the Mn^2+ transfer rate parameter k21 was given by Eq. [3], under the assumption that k21 decreases linearly with increasing SEA0400 plasma concentration, Cp, as in Eq. [2]:
Parameter k21,initial is defined as the pre-pharmaceutical administration transfer parameter, k21(t<1 h). […] All the transfer rate and pharmaceutical parameters were therefore time-independent with the exception of k0 and k21 following SEA0400 administration.
The pharmaceutical absorption and elimination half-live (t1/2abs and t1/2el respectively) are given in Eq. [4] and Eq. [5].
Solutions to the ODEs were acquired using simultaneous 4th Order Runge-Kutta numerical methods in Matlab (Nantick, Mass.). Temporal in vivo cardiac Mn^2+ content data and ex vivo blood Mn^2+ content data were fit simultaneously to acquire least square fits for the first order rate parameters, kab. Least square fits of the pharmaceutical parameters, kabs and kel were also obtained using the SEA0400 groups, assuming that kab was unchanged from the control 190 nmoles/g group. […] The only constraint made by the least square fitting technique was that the transfer rate parameters and pharmaceutical parameters were ≧0.
Least square curve fitting techniques are inherently sensitive to the initial estimates of kab. For a given initial estimate of kab the fit may converge on solutions at local minima, which may not be the global minimum. In order to minimize potential errors caused by this effect, all the models employed a global search over a wide range in parameter space to find the initial estimates of kab corresponding to lowest fit residuals. To use the most realistic initial estimates for the fitting function, simultaneous solutions were obtained for the control 190 nmoles/g heart and 50 mg/kg SEA0400 heart efflux data, as well as the corresponding blood efflux data.
For the SEA0400 groups, a similar set of simultaneous ODEs was used, with k21 modeled as a function of time (Eq. [3]).
k21total and k2comp are the total transfer rates from compartment 2 to the blood, and from compartment 2 to compartments 3 and 4, respectively. These two parameters were estimated via the modeling technique.

For `CCOc1ccc(Oc2ccc(OCc3cc(F)ccc3F)cc2)c(N)c1` [SEA0400], the “kabs drug absorption rate” value [1] was 671 h⁻¹, the “kel drug elimination rate” value [1] was 1.7 h⁻¹ and the “kabs drug absorption rate” value [2] was 672 h⁻¹. For the same compound, the “kel drug elimination rate” value [2] was 0.51 h⁻¹, the “kabs drug absorption rate” value [3] was 680 h⁻¹ and the “kel drug elimination rate” value [3] was 0.49 h⁻¹. The “kabs drug absorption rate” value [4] was 66 h⁻¹, the “kel drug elimination rate” value [4] was 0.14 h⁻¹ and the “kabs drug absorption rate” value [5] was 68 h⁻¹. The “kel drug elimination rate” value [5] was 1.6 h⁻¹, the “kabs drug absorption rate” value [6] was 149 h⁻¹ and the “kel drug elimination rate” value [6] was 0.47 h⁻¹. For the same compound, the “kabs drug absorption rate” value [7] was 115 h⁻¹, the “kel drug elimination rate” value [7] was 0.41 h⁻¹ and the “kabs drug absorption rate” value [8] was 118 h⁻¹. For the same compound, the “kel drug elimination rate” value [8] was 0.17 h⁻¹, the “Mn^2+ efflux rate following inhibition of the NCX, % of the initial, pre-SEA0400 administration, rate” value (10 mg/kg SEA0400) was 8.2% and the “Mn^2+ efflux rate following inhibition of the NCX, % of the initial, pre-SEA0400 administration, rate” value (20 mg/kg SEA0400) was 1.8%. The “Mn^2+ efflux rate following inhibition of the NCX, % of the initial, pre-SEA0400 administration, rate” value (35 mg/kg SEA0400) was 1.6%, the “Mn^2+ efflux rate following inhibition of the NCX, % of the initial, pre-SEA0400 administration, rate” value (50 mg/kg SEA0400) was 1.0% and the “kabs drug absorption rate” value [9] was 85 h⁻¹. For the same compound, the “kel drug elimination rate” value [9] was 1.1 h⁻¹, the “kabs drug absorption rate” value [10] was 118 h⁻¹ and the “kel drug elimination rate” value [10] was 0.44 h⁻¹. For the same compound, the “kabs drug absorption rate” value [11] was 9.4 h⁻¹, the “kel drug elimination rate” value [11] was 0.33 h⁻¹ and the “kabs drug absorption rate” value [12] was 149 h⁻¹. For the same compound, the “kel drug elimination rate” value [12] was 0.06 h⁻¹ and the “share of Mn^2+ efflux that occurs via the NCX” value (model prediction, highest dose of SEA0400) was “approximately 99%”.
